Measured values from PMC7587356, “High-Throughput Screening for Inhibitors of the SARS-CoV-2 Protease Using a FRET-Biosensor” (Molecules, 2020).
Where two headings read alike, the source gives them in different places.

Legend:
SARS-CoV-2 3CLpro [1] = biological target: T1, SARS-CoV-2 3CLpro (Severe acute respiratory syndrome coronavirus 2, UniProt P0DTD1); test: biochemical; assay type: biochemical; details: for inhibition at 5 µM: 4 h
SARS-CoV-2 3CLpro [2] = biological target: T1, SARS-CoV-2 3CLpro; test: biochemical; assay type: biochemical; details: for reduction in levels of inhibition upon addition of 0.01% Triton X-100: with vs without 0.01% Triton X-100
[3] = read-out: Replicate_1 (LOPAC screen with protease)
[4] = read-out: Replicate_2 (LOPAC screen with protease)
[5] = read-out: mean (LOPAC screen with protease)
[6] = sheet LOPAC_screen_w_protease, primary screen at 5 µM, mean of two replicates, read-out: mean (LOPAC screen with protease)
[7] = sheet LOPAC_screen_w_protease, primary screen at 5 µM, replicate 1, read-out: Replicate_1 (LOPAC screen with protease)
[8] = sheet LOPAC_screen_w_protease, primary screen at 5 µM, replicate 2, read-out: Replicate_2 (LOPAC screen with protease)
[9] = with 0.01% Triton X-100; mean ± SD of triplicate; 4 h, 30 °C; read-out: A) EC50 with Triton X-100
[10] = without Triton X-100; mean ± SD of triplicate; 4 h, 30 °C; read-out: B) EC50 without Triton X-100
[11] = sheet LOPAC_screen_w_protease, primary screen at 5 µM, mean of two replicates
[12] = sheet LOPAC_screen_w_protease, primary screen at 5 µM, replicate 1
[13] = sheet LOPAC_screen_w_protease, primary screen at 5 µM, replicate 2
[14] = EC50 with Triton X-100 / EC50 without Triton X-100, ratio greater than 2 suggests aggregation-based inhibitor

Row | SMILES | Ratio (A/B) (SARS-CoV-2 3CLpro [2]) | EC50 (SARS-CoV-2 3CLpro [2]; [9]) [nM] | EC50 (SARS-CoV-2 3CLpro [2]; [10]) [nM] | further results
1 | N[C@@H](CCC(=O)N[C@@H](CSN=O)C(=O)NCC(=O)O)C(=O)O [S-Nitrosoglutathione, reference compound] | 1.5 | – | – | inhibition at 5 µM (SARS-CoV-2 3CLpro [1]; [3]): 44.1%; inhibition at 5 µM (SARS-CoV-2 3CLpro [1]; [4]): 41.7%; inhibition at 5 µM (SARS-CoV-2 3CLpro [1]; [5]): 42.9%; EC50 (SARS-CoV-2 3CLpro [2]; A) EC50 with Triton X-100): 2290 ± 245 nM; EC50 (SARS-CoV-2 3CLpro [2]; B) EC50 without Triton X-100): 1490 ± 627 nM
2 | N#C/C(=C\c1ccc(O)c(O)c1)C(N)=S [Tyrphostin 47, reference compound] | – | > 20000 | 15800 ± 10100 | inhibition at 5 µM (SARS-CoV-2 3CLpro [1]; [6]): 28.2%; inhibition at 5 µM (SARS-CoV-2 3CLpro [1]; [7]): 30.5%; inhibition at 5 µM (SARS-CoV-2 3CLpro [1]; [8]): 25.9%
3 | NC1CCc2cc(O)c(O)cc2C1 (stereo not drawn) [6,7-ADTN] | 1.1 | 2380 ± 257 | 2120 ± 727 | –
4 | Oc1ccc(C2CNCCc3c2cc(O)c(O)c3Cl)cc1 (stereo not drawn) [Fenoldopam] | – | > 20000 | 7190 ± 6080 | –
5 | NC(Cc1cc(O)c(O)cc1O)C(=O)O (racemic) [6-Hydroxy-dl-DOPA, reference compound] | – | 1320 ± 118 | 652 ± 259 | mean (LOPAC screen with protease) (SARS-CoV-2 3CLpro [1]; [11]): 66.3118; Replicate_1 (LOPAC screen with protease) (SARS-CoV-2 3CLpro [1]; [12]): 69.7112; Replicate_2 (LOPAC screen with protease) (SARS-CoV-2 3CLpro [1]; [13]): 62.9123; Ratio (A/B) (SARS-CoV-2 3CLpro [2]; [14]): 2.0
6 | O=C(O)/C=C/c1ccc(O)c(O)c1 [Caffeic Acid] | – | – | – | EC50 (SARS-CoV-2 3CLpro [2]; A) EC50 with Triton X-100): > 20000 nM; EC50 (SARS-CoV-2 3CLpro [2]; B) EC50 without Triton X-100): 5390 ± 1230 nM
7 | C[N+](C)(C)CCC(=O)c1cccc2ccccc12 [alpha-NETA, 2-(alpha-Naphthoyl)ethyltrimethylammonium] | 0.9 | 227 ± 14 | 243 ± 51 | –
8 | CC(C)N(CCC(=O)c1ccc2ccccc2c1)Cc1ccccc1 [ZM 39923] | 1.0 | 302 ± 38 | 289 ± 55 | –
9 | N=c1c[n+](N2CCOCC2)[n-]o1 [3-Morpholinosydnonimine] | 1.1 | 5660 ± 445 | 4970 ± 2380 | –
10 | CN=c1nc(-c2ccccc2)n(-c2ccccc2)s1 [SCH-202676] | – | 274 ± 73 | 41 ± 8 | Ratio (A/B) (SARS-CoV-2 3CLpro [2]; [14]): 6.7; reduction in levels of inhibition upon addition of 0.01% Triton X-100 (SARS-CoV-2 3CLpro [2]): > 2 fold
11 | CC(Cc1ccc(O)c(O)c1)C(C)Cc1ccc(O)c(O)c1 (stereo not drawn) [Nordihydroguaiaretic acid] | 1.3 | 270 ± 58 | 214 ± 65 | –
12 | NC[C@@H]1O[C@H](C23CC4CC(CC(C4)C2)C3)Cc2c1ccc(O)c2O [A-77636] | 1.6 | – | – | EC50 (SARS-CoV-2 3CLpro [2]; read-out: A) EC50 with Triton X-100): 3790 ± 630 nM; EC50 (SARS-CoV-2 3CLpro [2]; read-out: B) EC50 without Triton X-100): 2340 ± 783 nM
13 | O=C(O)c1cc[c]([Hg][Cl])cc1 [4-Chloromercuribenzoic acid, reference compound] | 0.9 | – | 95 ± 7 | mean (LOPAC screen with protease) (SARS-CoV-2 3CLpro [1]; [11]): 103.38; Replicate_1 (LOPAC screen with protease) (SARS-CoV-2 3CLpro [1]; [12]): 104.085; Replicate_2 (LOPAC screen with protease) (SARS-CoV-2 3CLpro [1]; [13]): 102.675; EC50 (SARS-CoV-2 3CLpro [2]; with 0.01% Triton X-100, read-out: EC50): 85 nM
14 | O=C1C(SCCO)=C(SCCO)C(=O)c2ccccc21 [NSC 95397, reference compound] | – | > 20000 | > 20000 | mean (LOPAC screen with protease) (SARS-CoV-2 3CLpro [1]; [11]): 19.1086; Replicate_1 (LOPAC screen with protease) (SARS-CoV-2 3CLpro [1]; [12]): 20.9168; Replicate_2 (LOPAC screen with protease) (SARS-CoV-2 3CLpro [1]; [13]): 17.3004
15 | Oc1cc(O)c2c(c1)O[C@H](c1ccc(O)c(O)c1)[C@@H](O)C2 [(+)-Catechin] | – | > 20000 | 11300 ± 6550 | –
16 | N.S=C(S)N1CCCC1 [APDC] | 0.8 | 1230 ± 64 | 1520 ± 697 | –
17 | CCN(CC)C(=S)SSC(=S)N(CC)CC [Disulfiram] | – | – | – | reduction in levels of inhibition upon addition of 0.01% Triton X-100 (SARS-CoV-2 3CLpro [2]): > 2 fold
18 | O=c1oc(Cl)c(Cl)c2ccccc12 [3,4-Dichloroisocoumarin, reference compound] | 1.6 | 8700 ± 2720 | 5380 ± 612 | inhibition at 5 µM (SARS-CoV-2 3CLpro [1]; [6]): 30.4%; inhibition at 5 µM (SARS-CoV-2 3CLpro [1]; [7]): 30.8%; inhibition at 5 µM (SARS-CoV-2 3CLpro [1]; [8]): 30%
19 | COc1ccc2c(c1)CC[C@@H]1[C@@H]2CC[C@]2(C)[C@@H](NCCCCCCN3C(=O)C=CC3=O)CC[C@@H]12 [U-73122, reference compound] | – | 694 ± 82 | 350 ± 17 | mean (LOPAC screen with protease) (SARS-CoV-2 3CLpro [1]; [11]): 88.5998; Replicate_1 (LOPAC screen with protease) (SARS-CoV-2 3CLpro [1]; [12]): 89.4118; Replicate_2 (LOPAC screen with protease) (SARS-CoV-2 3CLpro [1]; [13]): 87.7878; Ratio (A/B) (SARS-CoV-2 3CLpro [2]; [14]): 2.0
20 | CC(C)(C)c1ccc(S(=O)(=O)/C=C/C#N)cc1 [Bay 11-7085, reference compound] | – | 1620 ± 103 | 807 ± 120 | mean (LOPAC screen with protease) (SARS-CoV-2 3CLpro [1]; [11]): 90.2992; Replicate_1 (LOPAC screen with protease) (SARS-CoV-2 3CLpro [1]; [12]): 92.052; Replicate_2 (LOPAC screen with protease) (SARS-CoV-2 3CLpro [1]; [13]): 88.5464; Ratio (A/B) (SARS-CoV-2 3CLpro [2]; [14]): 2.0
21 | CN(N=O)c1cc(O)ccc1O [Dephostatin, reference compound] | 2.2 | 5030 ± 1220 | 2280 ± 619 | inhibition at 5 µM (SARS-CoV-2 3CLpro [1]; [6]): 35.5%; inhibition at 5 µM (SARS-CoV-2 3CLpro [1]; [7]): 36.5%; inhibition at 5 µM (SARS-CoV-2 3CLpro [1]; [8]): 34.6%
22 | Oc1cc2c(cc1O)CN(C(=S)NCCc1ccc(Cl)cc1)CCC2 [Capsazepine, reference compound] | 1.4 | – | – | inhibition at 5 µM (SARS-CoV-2 3CLpro [1]; [3]): 91.9%; inhibition at 5 µM (SARS-CoV-2 3CLpro [1]; [4]): 90.5%; inhibition at 5 µM (SARS-CoV-2 3CLpro [1]; [5]): 91.2%; EC50 (SARS-CoV-2 3CLpro [2]; A) EC50 with Triton X-100): 944 ± 98 nM; EC50 (SARS-CoV-2 3CLpro [2]; B) EC50 without Triton X-100): 668 ± 330 nM
